Reference: ChEMBL document CHEMBL5096234, “Discovery, Optimization, and Evaluation of Selective CDK4/6 Inhibitors for the Treatment of Breast Cancer” (J Med Chem, 2022)
Activity calls are given as the source filed them. The calls are words filed in the database; no cut-off is given here.

How the values were obtained:
CDK6/cyclin D1 = CDK6/cyclin D1 (Homo sapiens, UniProt Q00534); test: Inhibition of CDK6/cyclin-D1 (unknown origin) in presence of ATP by time resolved-FRET assay; format: protein-complex assay
CDK6/cyclin D1, sequence (P24385 whole entry): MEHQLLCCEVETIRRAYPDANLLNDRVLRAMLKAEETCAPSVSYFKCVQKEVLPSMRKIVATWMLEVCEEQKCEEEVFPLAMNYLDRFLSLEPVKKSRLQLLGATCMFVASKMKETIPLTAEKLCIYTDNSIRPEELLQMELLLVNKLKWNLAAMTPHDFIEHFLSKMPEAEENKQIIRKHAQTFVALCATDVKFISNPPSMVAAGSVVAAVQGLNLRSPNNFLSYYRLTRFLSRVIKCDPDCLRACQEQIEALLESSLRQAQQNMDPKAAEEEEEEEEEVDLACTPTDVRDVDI
CDK6/cyclin D1, sequence (Q00534 whole entry): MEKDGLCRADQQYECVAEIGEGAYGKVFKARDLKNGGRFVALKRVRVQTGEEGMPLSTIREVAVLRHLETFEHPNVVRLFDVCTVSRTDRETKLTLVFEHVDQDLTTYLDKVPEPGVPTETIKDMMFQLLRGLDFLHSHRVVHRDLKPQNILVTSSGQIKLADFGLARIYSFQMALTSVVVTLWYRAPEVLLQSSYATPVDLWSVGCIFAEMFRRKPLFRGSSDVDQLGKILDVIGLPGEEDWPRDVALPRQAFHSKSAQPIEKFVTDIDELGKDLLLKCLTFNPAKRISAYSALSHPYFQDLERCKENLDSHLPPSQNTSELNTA

MCF-10A = test: Antiproliferative activity against human MCF-10A cells assessed as cell growth inhibition incubated for 72 hrs by CCK-8 assay; format: functional
T47D [1] = test: Antiproliferative activity against human T47D cells assessed as inhibition of cell growth at 1 to 4 uM incubated for 5 days by CCK-8 assay; format: functional, cell-based; settings: dose 1-4 µM, time 5.0 day
[2] = Cmax in Sprague-Dawley rat 1 mg/kg, iv by LC/MS/MS analysis; format: ADME, organism-based; set-up: dose 1 mg/kg, route iv; settings: in vivo
MCF7 [3] = test: Induction of cell cycle arrest in human MCF7 cells assessed as accumulation of cells at G1 phase at 1.5 uM incubated for 24 hrs by propidium iodide staining based flow cytometry analysis (reference value: 57.38%); format: functional
MCF7 [4] = test: Induction of cell cycle arrest in human MCF7 cells assessed as accumulation of cells at G1 phase at 3 uM incubated for 24 hrs by propidium iodide staining based flow cytometry analysis (reference value: 57.38%); format: functional
MCF7 [5] = test: Induction of cell cycle arrest in human MCF7 cells assessed as accumulation of cells at G1 phase at 6 uM incubated for 24 hrs by propidium iodide staining based flow cytometry analysis (reference value: 57.38%); format: functional
MCF7 [6] = test: Induction of cell cycle arrest in human MCF7 cells assessed as accumulation of cells at G2 phase at 3 uM incubated for 24 hrs by propidium iodide staining based flow cytometry analysis (reference value: 29.66%); format: functional
T47D [7] = test: Induction of cell cycle arrest in human T47D cells assessed as accumulation of cells at G1 phase at 4 uM incubated for 24 hrs by propidium iodide staining based flow cytometry analysis (reference value: 69.55 %); format: functional
T47D [8] = test: Induction of cell cycle arrest in human T47D cells assessed as accumulation of cells at G2 phase at 1 uM incubated for 24 hrs by propidium iodide staining based flow cytometry analysis (reference value: 16.57%); format: functional
T47D [9] = test: Induction of cell cycle arrest in human T47D cells assessed as accumulation of cells at G2 phase at 4 uM incubated for 24 hrs by propidium iodide staining based flow cytometry analysis (reference value: 16.57%); format: functional
[10] = target: T1, Retinoblastoma-associated protein (Homo sapiens) (UniProt P06400); test: Inhibition of RB phosphorylation in human MCF7 cells at 1.5 to 5 uM incubated for 24 hrs by Western blot analysis; format: cell-based; settings: dose 1.5-5 µM
T1 sequence (whole entry): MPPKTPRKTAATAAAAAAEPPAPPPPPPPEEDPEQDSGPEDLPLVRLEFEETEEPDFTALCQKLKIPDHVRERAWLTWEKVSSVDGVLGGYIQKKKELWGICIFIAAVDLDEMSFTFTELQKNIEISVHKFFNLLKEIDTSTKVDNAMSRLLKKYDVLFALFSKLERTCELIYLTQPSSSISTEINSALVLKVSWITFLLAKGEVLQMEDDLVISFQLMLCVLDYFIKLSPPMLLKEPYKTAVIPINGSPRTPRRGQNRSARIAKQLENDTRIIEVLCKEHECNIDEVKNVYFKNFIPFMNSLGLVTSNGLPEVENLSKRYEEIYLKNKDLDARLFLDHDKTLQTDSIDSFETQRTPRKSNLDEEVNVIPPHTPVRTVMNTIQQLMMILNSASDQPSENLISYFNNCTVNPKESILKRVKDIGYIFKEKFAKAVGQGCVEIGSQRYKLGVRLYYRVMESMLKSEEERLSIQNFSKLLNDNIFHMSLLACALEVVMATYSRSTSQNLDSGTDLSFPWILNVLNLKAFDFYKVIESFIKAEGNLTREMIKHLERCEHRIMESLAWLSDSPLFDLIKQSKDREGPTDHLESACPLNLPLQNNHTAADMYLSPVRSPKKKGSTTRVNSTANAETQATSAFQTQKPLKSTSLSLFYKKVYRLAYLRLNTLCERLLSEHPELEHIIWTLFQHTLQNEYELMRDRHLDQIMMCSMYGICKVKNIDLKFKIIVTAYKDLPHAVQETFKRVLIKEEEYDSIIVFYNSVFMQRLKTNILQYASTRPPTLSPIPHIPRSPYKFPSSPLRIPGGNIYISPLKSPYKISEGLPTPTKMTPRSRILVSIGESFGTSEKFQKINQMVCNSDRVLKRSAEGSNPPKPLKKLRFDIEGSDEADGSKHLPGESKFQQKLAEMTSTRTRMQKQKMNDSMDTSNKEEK

MCF7 [11] = test: Downregulation c-MYC level in human MCF7 cells incubated for 24 hrs by Western blot analysis; format: functional, cell-based; settings: dose 1.5-5 µM, DDE = dose-dependent effect
T47D [12] = test: Downregulation c-MYC level in human T47D cells incubated for 24 hrs by Western blot analysis; format: functional, cell-based; settings: dose 1-4 µM, DDE = dose-dependent effect
[13] = […] stability in human liver microsomes assessed as half life preincubated for 10 mins followed by NADPH addition by LC-MS/MS analysis; format: ADME, Microsome
[14] = […] stability in human liver microsomes assessed as intrinsic clearance preincubated for 10 mins followed by NADPH addition by LC-MS/MS analysis; format: ADME, Microsome; settings: read-out: CLH
CYP3A4 = CYP3A4 (Homo sapiens, UniProt P08684); test: Inhibition of CYP3A4 in human liver microsomes using testosterone as substrate at 10 uM preincubated for 5 mins followed by NADPH addition by LC-MS/MS analysis relative to control; format: ADME, Microsome; settings: probe testosterone
CYP3A4, sequence (P08684 whole entry): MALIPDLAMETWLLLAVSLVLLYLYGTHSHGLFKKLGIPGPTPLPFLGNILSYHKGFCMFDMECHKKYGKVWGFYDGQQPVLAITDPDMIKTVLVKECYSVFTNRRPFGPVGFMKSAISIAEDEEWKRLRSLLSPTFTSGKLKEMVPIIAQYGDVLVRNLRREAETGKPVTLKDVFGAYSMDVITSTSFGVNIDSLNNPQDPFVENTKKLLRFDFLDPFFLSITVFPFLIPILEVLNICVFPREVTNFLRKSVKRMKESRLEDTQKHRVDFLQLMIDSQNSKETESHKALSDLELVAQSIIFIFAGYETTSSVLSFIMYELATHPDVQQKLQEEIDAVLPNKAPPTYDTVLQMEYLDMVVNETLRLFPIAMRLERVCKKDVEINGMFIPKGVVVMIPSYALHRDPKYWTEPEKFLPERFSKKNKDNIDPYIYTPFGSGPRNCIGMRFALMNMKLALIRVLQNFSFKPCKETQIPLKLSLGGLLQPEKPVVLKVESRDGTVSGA

[15] = MRT (0 to infinity) in Sprague-Dawley rat 1 mg/kg, iv by LC/MS/MS analysis; format: ADME, organism-based; settings: in vivo
[16] = MRT (0 to infinity) in Sprague-Dawley rat 10 mg/kg, po by LC/MS/MS analysis; format: ADME, organism-based; settings: in vivo
[17] = Oral bioavailability in Sprague-Dawley rat 10 mg/kg by LC/MS/MS analysis; format: ADME, organism-based; settings: in vivo
[18] = Acute toxicity in ICR mouse assessed as animal death at 5000 mg/kg, po administered as single dose and measured every 2 days for 14 days; format: organism-based; settings: in vivo, 336 h, time 14 day
[19] = Acute toxicity in ICR mouse assessed as change in heart weight at 1000 to 5000 mg/kg, po administered as single dose and measured every 2 days for 14 days; format: organism-based; settings: in vivo, 336 h, dose 1000-5000 mg/kg, time 14 day
[20] = Acute toxicity in ICR mouse assessed as heart lesions at 5000 mg/kg, po administered as single dose and measured every 2 days for 14 days by H and E staining based analysis; format: organism-based; settings: in vivo, 336 h, time 14 day
[21] = Acute toxicity in ICR mouse assessed as liver lesions at 5000 mg/kg, po administered as single dose and measured every 2 days for 14 days by H and E staining based analysis; format: organism-based; settings: in vivo, 336 h, time 14 day
[22] = Acute toxicity in ICR mouse assessed as lung lesions at 5000 mg/kg, po administered as single dose and measured every 2 days for 14 days by H and E staining based analysis; format: organism-based; settings: in vivo, 336 h, time 14 day
[23] = Acute toxicity in ICR mouse assessed as heart kidney at 5000 mg/kg, po administered as single dose and measured every 2 days for 14 days by H and E staining based analysis; format: organism-based; settings: in vivo, 336 h, time 14 day

## CCN1CCc2cc(-c3nc(Nc4ccc(N5CCNCC5)cn4)ncc3F)ccc2C1=O
CDK6/cyclin D1
  IC50: 0.016 µM
MCF-10A
  GI50: 17.7 µM
T47D [1]
  inhibition: Active
[2]
  Cmax: 291 ng/mL
MCF7 [3]
  Activity: 79.52%
MCF7 [4]
  Activity: 83.91%
MCF7 [5]
  Activity: 85.27%
MCF7 [6]
  Activity: 11.42%
T47D [7]
  Activity: 87.12%
T47D [8]
  Activity: 7.59%
T47D [9]
  Activity: 5.87%
[10]
  inhibition: Active
MCF7 [11]
  Activity: Dde
T47D [12]
  Activity: Dde
[13]
  half-life: 1.8 h
[14]
  CLint scaled: 11.5 mL/min/kg
CYP3A4
  inhibition at 10 µM: 12.4%
[15]
  MRT inf: 3.5 h
[16]
  MRT inf: 9.11 h
[17]
  bioavailability: 43%
[18]
  Activity: Non-Toxic
[19]
  Activity: Non-Toxic
[20]
  Activity: Non-Toxic
[21]
  Activity: Non-Toxic
[22]
  Activity: Non-Toxic
[23]
  Activity: Non-Toxic
